Test results from patent US20260285850A1, “SUBSTITUTED OXAZOLIDINONES AND IMIDAZOLINONES AS HERBICIDES” (FMC CORPORATION, priority 2023, published 2026).

Tests used:
Assay type in all cases: in vivo
[1] = tested on: ducksalad (Heteranthera limosa); experiment: Test B flooded paddy test, visual plant response rating 0-100; conditions: 250 g ai/ha, Flood, applied to paddy water, evaluated after 13 days
Procedure, shortened: (§1)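 Greenhouse, 13 d. Seedlings at 2-leaf stage, pots flooded to 3 cm, compound delivered into floodwater, water level held constant. Evaluated visually relative to controls.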

rice (Oryza sativa) = experiment: as above; conditions: 250 g ai/ha, Flood, applied to paddy water, evaluated after 13 days
Procedure, shortened: as §1

[2] = tested on: barnyardgrass (Echinochloa crusgalli); experiment: as above; conditions: 250 g ai/ha, Flood, applied to paddy water, evaluated after 13 days
Procedure, shortened: as §1

[3] = tested on: sedge, umbrella (small-flower umbrella sedge, Cyperus difformis); experiment: as above; conditions: 250 g ai/ha, Flood, applied to paddy water, evaluated after 13 days
Procedure, shortened: as §1

[4] = tested on: horseweed (Erigeron canadensis); experiment: Test A postemergence application, visual injury rating 0-100; conditions: 10 days
Procedure, shortened: (§2)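 Plants in a loam and sand soil blend were treated with each test chemical, in a non-phytotoxic solvent system including surfactant, either sprayed on seeded soil before emergence or applied after emergence at the one- to two-leaf stage. Ten days later in the greenhouse, plants were compared with untreated controls and visually rated from 0 (no effect) to 100 (complete control).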

[5] = tested on: blackgrass (Alopecurus myosuroides); experiment: as above; conditions: 10 days
Procedure, shortened: as §2

soybean (Glycine max) [6] = experiment: as above; conditions: 10 days
Procedure, shortened: as §2

kochia (Bassia scoparia) [7] = experiment: as above; conditions: 10 days
Procedure, shortened: as §2

[8] = tested on: oat, wild (wild oat, Avena fatua); experiment: as above; conditions: 10 days
Procedure, shortened: as §2

[9] = tested on: ragweed (common ragweed, Ambrosia artemisiifolia); experiment: as above; conditions: 10 days
Procedure, shortened: as §2

[10] = tested on: ryegrass, Italian (italian ryegrass, Lolium multiflorum); experiment: as above; conditions: 10 days
Procedure, shortened: as §2

[11] = tested on: green foxtail (Setaria viridis); experiment: as above; conditions: 10 days
Procedure, shortened: as §2

[12] = tested on: wheat (Triticum aestivum); experiment: as above; conditions: 10 days
Procedure, shortened: as §2

[13] = tested on: barnyardgrass (Echinochloa crus-galli); experiment: as above; conditions: 10 days
Procedure, shortened: as §2

[14] = tested on: palmer (palmer amaranth, palmer pigweed, Amaranthus palmeri); experiment: as above; conditions: 10 days
Procedure, shortened: as §2

corn (Zea mays) [15] = experiment: as above; conditions: 10 days
Procedure, shortened: as §2

[16] = tested on: blackgrass (Alopecurus myosuroides); experiment: Test A preemergence soil spray, visual injury rating 0-100; conditions: 10 days, 0 = no effect, 100 = complete control
Procedure, shortened: as §2

soybean (Glycine max) [17] = experiment: as above; conditions: 10 days, 0 = no effect, 100 = complete control
Procedure, shortened: as §2

kochia (Bassia scoparia) [18] = experiment: as above; conditions: 10 days, 0 = no effect, 100 = complete control
Procedure, shortened: as §2

[19] = tested on: oat, wild (wild oat, Avena fatua); experiment: as above; conditions: 10 days, 0 = no effect, 100 = complete control
Procedure, shortened: as §2

[20] = tested on: ragweed (common ragweed, Ambrosia artemisiifolia); experiment: as above; conditions: 10 days, 0 = no effect, 100 = complete control
Procedure, shortened: as §2

[21] = tested on: ryegrass, Italian (italian ryegrass, Lolium multiflorum); experiment: as above; conditions: 10 days, 0 = no effect, 100 = complete control
Procedure, shortened: as §2

[22] = tested on: green foxtail (Setaria viridis); experiment: as above; conditions: 10 days, 0 = no effect, 100 = complete control
Procedure, shortened: as §2

[23] = tested on: wheat (Triticum aestivum); experiment: as above; conditions: 10 days, 0 = no effect, 100 = complete control
Procedure, shortened: as §2

[24] = tested on: barnyardgrass (Echinochloa crus-galli); experiment: as above; conditions: 10 days, 0 = no effect, 100 = complete control
Procedure, shortened: as §2

[25] = tested on: palmer (palmer amaranth, palmer pigweed, Amaranthus palmeri); experiment: as above; conditions: 10 days, 0 = no effect, 100 = complete control
Procedure, shortened: as §2

corn (Zea mays) [26] = experiment: as above; conditions: 10 days, 0 = no effect, 100 = complete control
Procedure, shortened: as §2

[27] = 31 g ai/ha, postemergence, 0 = no effect, 100 = complete control
[28] = Postemergence, 125 g ai/ha, 0 is no effect, 100 is complete control

SMILES: CONC(=O)C1CC(NC(=O)C2(C)CN(c3cc(F)cc(F)c3)C(=O)O2)CO1 (centres unmarked) [Compound 39]
- Plant response rating, Ducksalad (0 to 100 scale, 0 is no effect and 100 is complete control) [1]: 0
- Plant response rating, Rice (0 to 100 scale, 0 is no effect and 100 is complete control) (rice (Oryza sativa)): 0
- Plant response rating, Barnyardgrass (0 to 100 scale, 0 is no effect and 100 is complete control) [2]: 0
- Plant response rating, Sedge, Umbrella (0 to 100 scale, 0 is no effect and 100 is complete control) [3]: 0
- Horseweed plant response rating (0-100) [4, 27]: 10
- Horseweed plant response rating (0 to 100 scale) [4, 28]: 0
- Blackgrass plant response rating (0-100) [5, 27]: 90
- Blackgrass plant response rating (0 to 100 scale) [5, 28]: 100
- Soybean plant response rating (0-100) (soybean (Glycine max) [6]; [27]): 20
- Soybean plant response rating (0 to 100 scale) (soybean (Glycine max) [6]; [28]): 60
- Kochia plant response rating (0-100) (kochia (Bassia scoparia) [7]; [27]): 20
- Kochia plant response rating (0 to 100 scale) (kochia (Bassia scoparia) [7]; [28]): 50
- Oat, Wild plant response rating (0-100) [8, 27]: 90
- Oat, Wild plant response rating (0 to 100 scale) [8, 28]: 90
- Ragweed plant response rating (0-100) [9, 27]: 0
- Ragweed plant response rating (0 to 100 scale) [9, 28]: 20
- Ryegrass, Italian plant response rating (0-100) [10, 27]: 30
- Ryegrass, Italian plant response rating (0 to 100 scale) [10, 28]: 80
- Foxtail, Green plant response rating (0-100) [11, 27]: 20
- Foxtail, Green plant response rating (0 to 100 scale) [11, 28]: 90
- Wheat plant response rating (0-100) [12, 27]: 90
- Wheat plant response rating (0 to 100 scale) [12, 28]: 90
- Barnyardgrass plant response rating (0-100) [13, 27]: 10
- Barnyardgrass plant response rating (0 to 100 scale) [13, 28]: 90
- Amaranth, Palmer plant response rating (0-100) [14, 27]: 0
- Amaranth, Palmer / Pigweed, Palmer plant response rating (0 to 100 scale) [14, 28]: 20
- Corn plant response rating (0-100) (corn (Zea mays) [15]; [27]): 0
- Corn plant response rating (0 to 100 scale) (corn (Zea mays) [15]; [28]): 100
- Blackgrass plant response rating (0-100) ([16]; 31 g ai/ha): 0
- Blackgrass plant response rating (0 to 100 scale) ([16]; 125 g ai/ha): 60
- Soybean plant response rating (0-100) (soybean (Glycine max) [17]; 31 g ai/ha): 0
- Soybean plant response rating (0 to 100 scale) (soybean (Glycine max) [17]; 125 g ai/ha): 10
- Kochia plant response rating (0-100) (kochia (Bassia scoparia) [18]; 31 g ai/ha): 0
- Kochia plant response rating (0 to 100 scale) (kochia (Bassia scoparia) [18]; 125 g ai/ha): 20
- Oat, Wild plant response rating (0-100) ([19]; 31 g ai/ha): 0
- Oat, Wild plant response rating (0 to 100 scale) ([19]; 125 g ai/ha): 90
- Ragweed plant response rating (0-100) ([20]; 31 g ai/ha): 0
- Ragweed plant response rating (0 to 100 scale) ([20]; 125 g ai/ha): 0
- Ryegrass, Italian plant response rating (0-100) ([21]; 31 g ai/ha): 0
- Ryegrass, Italian plant response rating (0 to 100 scale) ([21]; 125 g ai/ha): 40
- Foxtail, Green plant response rating (0-100) ([22]; 31 g ai/ha): 0
- Foxtail, Green plant response rating (0 to 100 scale) ([22]; 125 g ai/ha): 0
- Wheat plant response rating (0-100) ([23]; 31 g ai/ha): 0
- Wheat plant response rating (0 to 100 scale) ([23]; 125 g ai/ha): 90
- Barnyardgrass plant response rating (0-100) ([24]; 31 g ai/ha): 0
- Barnyardgrass plant response rating (0 to 100 scale) ([24]; 125 g ai/ha): 20
- Amaranth, Palmer plant response rating (0-100) ([25]; 31 g ai/ha): 0
- Amaranth, Palmer plant response rating (0 to 100 scale) ([25]; 125 g ai/ha): 0
- Corn plant response rating (0-100) (corn (Zea mays) [26]; 31 g ai/ha): 0
- Corn plant response rating (0 to 100 scale) (corn (Zea mays) [26]; 125 g ai/ha): 0
